Results from PubChem BioAssay AID256 (DTP/NCI, 2004).
“And” between values parts separate entries of the source, which are not always exact repeats. Equal values may be shown once. Toxic doses and inconclusive results are not listed. How the source made its calls: active means survival T/C of 150% or more; inactive means T/C below 125% in these data.

Tested on: CD2F1 mice, L1210 leukemia ip, survival T/C
Assay: NCI In Vivo Anticancer Drug Screen. Data for tumor model L1210 Leukemia (intraperitoneal) in CD2F1 (CDF1) mice
Details: higher = longer survival
In short: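 Tumor-bearing mice (transplanted tumor) were split into treated and vehicle control groups, and the measured endpoint of each treated group was divided by that of its vehicle controls.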

[1] = endpoint: mean survival time, dose: 25.0 mg/kg/injection, schedule: Q01DX009 (ip), vehicle: saline
[2] = endpoint: mean survival time, dose: 100.0 mg/kg/injection, schedule: Q04DX003 (ip), vehicle: saline
[3] = endpoint: mean survival time, dose: 200.0 mg/kg/injection, schedule: Q04DX003 (ip), vehicle: saline
[4] = endpoint: mean survival time, dose: 100.0 mg/kg/injection, schedule: Q01DX009 (ip), vehicle: saline with Tween-80
[5] = endpoint: mean survival time, dose: 100.0 mg/kg/injection, schedule: Q01DX001 (ip), vehicle: saline with Tween-80
[6] = endpoint: mean survival time, dose: 200.0 mg/kg/injection, schedule: Q01DX001 (ip), vehicle: saline with Tween-80
[7] = endpoint: mean survival time, dose: 400.0 mg/kg/injection, schedule: Q01DX001 (ip), vehicle: saline with Tween-80
[8] = endpoint: mean survival time, dose: 100.0 mg/kg/injection, schedule: Q04DX003 (ip), vehicle: saline with Tween-80
[9] = endpoint: mean survival time, dose: 200.0 mg/kg/injection, schedule: Q01DX009 (ip), vehicle: saline with Tween-80
[10] = endpoint: mean survival time, dose: 200.0 mg/kg/injection, schedule: Q04DX003 (ip), vehicle: saline with Tween-80
[11] = endpoint: mean survival time, dose: 400.0 mg/kg/injection, schedule: Q01DX009 (ip), vehicle: saline with Tween-80
[12] = endpoint: mean survival time, dose: 400.0 mg/kg/injection, schedule: Q04DX003 (ip), vehicle: saline with Tween-80
[13] = endpoint: mean survival time, dose: 100.0 mg/kg/injection, schedule: Q01DX001 (ip), vehicle: saline
[14] = endpoint: mean survival time, dose: 200.0 mg/kg/injection, schedule: Q01DX001 (ip), vehicle: saline
[15] = endpoint: mean survival time, dose: 400.0 mg/kg/injection, schedule: Q01DX001 (ip), vehicle: saline
[16] = endpoint: mean survival time, dose: 100.0 mg/kg/injection, schedule: Q01DX009 (ip), vehicle: saline

Measured: T/C

Nc1nc(=O)c2[nH]cnc2n1O
inactive: endpoint: mean survival time, dose: 12.5 mg/kg/injection, schedule: Q04DX003 (ip), vehicle: acetone 97 % of control | endpoint: mean survival time, dose: 16.5 mg/kg/injection, schedule: Q01DX009 (ip), vehicle: saline 102 % of control | [1] 102 % of control | endpoint: mean survival time, dose: 25.0 mg/kg/injection, schedule: Q04DX003 (ip), vehicle: acetone 94 % of control | endpoint: mean survival time, dose: 50.0 mg/kg/injection, schedule: Q04DX003 (ip), vehicle: acetone 97 % of control | endpoint: mean survival time, dose: 55.0 mg/kg/injection, schedule: Q01DX009 (ip), vehicle: saline 118 % of control

CCOC(=O)CN(CC(=O)OCC)c1ccc(C(C)=O)cc1
inactive: [2] 105 % of control | [3] 94 % of control

CN(C)c1ccc2c(SCC(=O)OCC(=O)[C@@]3(O)CC[C@H]4[C@@H]5CCC6=CC(=O)C=C[C@]6(C)[C@H]5C(=O)C[C@@]43C)c3ccc(N(C)C)cc3nc2c1
inactive: endpoint: median survival time, dose: 25.0 mg/kg/injection, schedule: Q01DX009 (ip), vehicle: Klucel (hydroxypropylcellulose) (HPC) 117 % of control and 105 % of control | endpoint: median survival time, dose: 50.0 mg/kg/injection, schedule: Q01DX009 (ip), vehicle: Klucel (hydroxypropylcellulose) (HPC) 114 % of control and 116 % of control and 108 % of control | endpoint: median survival time, dose: 100.0 mg/kg/injection, schedule: Q01DX009 (ip), vehicle: Klucel (hydroxypropylcellulose) (HPC) 116 % of control and 118 % of control and 123 % of control | endpoint: median survival time, dose: 200.0 mg/kg/injection, schedule: Q01DX009 (ip), vehicle: Klucel (hydroxypropylcellulose) (HPC) 108 % of control | endpoint: median survival time, dose: 400.0 mg/kg/injection, schedule: Q01DX009 (ip), vehicle: Klucel (hydroxypropylcellulose) (HPC) 123 % of control

CN1C(C(=O)O)CCC1C(=O)O (stereo not drawn)
inactive: [2] 96 % of control | [3] 98 % of control

O=C(OC/C=C/CCl)c1ccc([N+](=O)[O-])cc1
inactive: endpoint: mean survival time, dose: 25.0 mg/kg/injection, schedule: Q01DX009 (ip), vehicle: saline with Tween-80 95 % of control | endpoint: mean survival time, dose: 50.0 mg/kg/injection, schedule: Q01DX009 (ip), vehicle: saline with Tween-80 94 % of control | [4] 91 % of control and 94 % of control

COC(=O)C1C2C=CC(CC2)C1C(=O)OC (stereo not drawn)
inactive: [5] 103 % of control | [6] 88 % of control | [7] 103 % of control

CCc1ccccc1OS(=O)(=O)c1cccc([N+](=O)[O-])c1
inactive: [4] 96 % of control | [8] 99 % of control | [9] 98 % of control | [10] 100 % of control | [11] 98 % of control | [12] 99 % of control

NC(=O)c1cn(C2CCCCC2)c2ncccc12
inactive: [13] 96 % of control | [14] 96 % of control | [15] 102 % of control

CC1CCC(O)C2(C)CC(O)C(C(C)C(=O)O)CC12 (stereo not drawn)
inactive: [5] 92 % of control | [6] 92 % of control | [7] 88 % of control

COc1ccc(CN2CCCNCC2)cc1
inactive: endpoint: mean survival time, dose: 12.5 mg/kg/injection, schedule: Q01DX005 (ip), vehicle: water 95 % of control | endpoint: mean survival time, dose: 25.0 mg/kg/injection, schedule: Q01DX005 (ip), vehicle: water 95 % of control | endpoint: mean survival time, dose: 50.0 mg/kg/injection, schedule: Q01DX005 (ip), vehicle: water 97 % of control | endpoint: mean survival time, dose: 100.0 mg/kg/injection, schedule: Q01DX005 (ip), vehicle: water 101 % of control | endpoint: mean survival time, dose: 200.0 mg/kg/injection, schedule: Q01DX005 (ip), vehicle: water 95 % of control

Nc1nc(Br)c2ccccc2c1-c1ccc([N+](=O)[O-])cc1
inactive: endpoint: mean survival time, dose: 50.0 mg/kg/injection, schedule: Q04DX003 (ip), vehicle: DMSO 98 % of control | endpoint: mean survival time, dose: 100.0 mg/kg/injection, schedule: Q04DX003 (ip), vehicle: DMSO 96 % of control | endpoint: mean survival time, dose: 200.0 mg/kg/injection, schedule: Q04DX003 (ip), vehicle: DMSO 95 % of control | endpoint: mean survival time, dose: 400.0 mg/kg/injection, schedule: Q04DX003 (ip), vehicle: DMSO 95 % of control

c1ccc(-c2nc(/N=N/c3nc(-c4ccccc4)c(-c4ccccc4)[nH]3)[nH]c2-c2ccccc2)cc1
inactive: endpoint: mean survival time, dose: 100.0 mg/kg/injection, schedule: Q04DX002 (ip), vehicle: Klucel (hydroxypropylcellulose) (HPC) 96 % of control | endpoint: mean survival time, dose: 200.0 mg/kg/injection, schedule: Q04DX002 (ip), vehicle: Klucel (hydroxypropylcellulose) (HPC) 96 % of control | endpoint: mean survival time, dose: 400.0 mg/kg/injection, schedule: Q04DX002 (ip), vehicle: Klucel (hydroxypropylcellulose) (HPC) 100 % of control

CC(=O)N/C(=C\c1ccccc1)C(N)=O
inactive: [4] 103 % of control | [9] 95 % of control | [11] 100 % of control

CC1=NNC(C)(C)C1
inactive: endpoint: mean survival time, dose: 25.0 mg/kg/injection, schedule: Q01DX009 (ip), vehicle: Klucel (hydroxypropylcellulose) (HPC) 96 % of control | endpoint: mean survival time, dose: 50.0 mg/kg/injection, schedule: Q01DX009 (ip), vehicle: Klucel (hydroxypropylcellulose) (HPC) 97 % of control | endpoint: mean survival time, dose: 100.0 mg/kg/injection, schedule: Q01DX009 (ip), vehicle: Klucel (hydroxypropylcellulose) (HPC) 92 % of control | [16] 102 % of control | endpoint: mean survival time, dose: 200.0 mg/kg/injection, schedule: Q01DX009 (ip), vehicle: Klucel (hydroxypropylcellulose) (HPC) 97 % of control | endpoint: mean survival time, dose: 200.0 mg/kg/injection, schedule: Q01DX009 (ip), vehicle: saline 105 % of control | endpoint: mean survival time, dose: 400.0 mg/kg/injection, schedule: Q01DX009 (ip), vehicle: Klucel (hydroxypropylcellulose) (HPC) 97 % of control | endpoint: mean survival time, dose: 400.0 mg/kg/injection, schedule: Q01DX009 (ip), vehicle: saline 103 % of control

COc1ccc2occc2c1
inactive: [8] 94 % of control | [10] 94 % of control | [12] 91 % of control

CCC[As](=O)(O)CCC
inactive: [1] 103 % of control | endpoint: mean survival time, dose: 50.0 mg/kg/injection, schedule: Q01DX009 (ip), vehicle: saline 108 % of control | [16] 98 % of control

O=C(NNC(=O)OCC(Cl)(Cl)Cl)OCC(Cl)(Cl)Cl
inactive: [8] 102 % of control

CCCCn1c(=O)cc(C(=O)O)c2ccccc21
inactive: [4] 93 % of control | [9] 97 % of control | [11] 89 % of control

CC(=O)Oc1cc([N+](=O)[O-])ccc1C(=O)O
inactive: [4] 102 % of control | [9] 102 % of control

CN(C)C(=S)Nc1ccc(Cl)cc1
inactive: [8] 98 % of control | [10] 98 % of control | [12] 100 % of control

O=C(NCC(S)c1ccc(Cl)cc1)C(F)(F)F (stereo not drawn)
inactive: endpoint: mean survival time, dose: 12.5 mg/kg/injection, schedule: Q04DX003 (ip), vehicle: saline with Tween-80 96 % of control | endpoint: mean survival time, dose: 25.0 mg/kg/injection, schedule: Q04DX003 (ip), vehicle: saline with Tween-80 90 % of control | endpoint: mean survival time, dose: 50.0 mg/kg/injection, schedule: Q04DX003 (ip), vehicle: saline with Tween-80 96 % of control

CC(C)(C)OC(=O)NC(CSCc1ccccc1)C(=O)Oc1ccc([N+](=O)[O-])cc1 (stereo not drawn)
inactive: [8] 95 % of control | [10] 90 % of control | [12] 86 % of control

ClCCN(Cc1ccccc1)Cc1ccccc1
inactive: endpoint: mean survival time, dose: 3.13 mg/kg/injection, schedule: Q01DX009 (ip), vehicle: saline with Tween-80 100 % of control | endpoint: mean survival time, dose: 6.25 mg/kg/injection, schedule: Q01DX009 (ip), vehicle: saline with Tween-80 102 % of control | endpoint: mean survival time, dose: 12.5 mg/kg/injection, schedule: Q01DX009 (ip), vehicle: saline with Tween-80 96 % of control

[O]=[Zr]
inactive: endpoint: mean survival time, dose: 75.0 mg/kg/injection, schedule: Q01DX001 (ip), vehicle: saline 94 % of control | endpoint: mean survival time, dose: 150.0 mg/kg/injection, schedule: Q01DX001 (ip), vehicle: saline 97 % of control | endpoint: mean survival time, dose: 300.0 mg/kg/injection, schedule: Q01DX001 (ip), vehicle: saline 98 % of control

O=C(O)/C=C/CC(=O)O
inactive: [13] 92 % of control | [14] 97 % of control | [15] 101 % of control

O=C(O)c1cnc(Cl)nc1Nc1ccccc1I
inactive: [6] 86 % of control

S=C(Nc1ccc(Cl)cc1)Nc1ccc(Cl)cc1 (tested in a mixture with another compound)
inactive: [4] 92 % of control | [8] 91 % of control | [9] 97 % of control | [10] 88 % of control | [11] 90 % of control | [12] 93 % of control

CCOC(=O)CC(Cc1cc(OC)ccc1OC)(C(C)=O)C(C)=O
inactive: endpoint: mean survival time, dose: 12.5 mg/kg/injection, schedule: Q01DX009 (ip), vehicle: water 100 % of control | endpoint: mean survival time, dose: 25.0 mg/kg/injection, schedule: Q01DX009 (ip), vehicle: water 110 % of control | endpoint: mean survival time, dose: 50.0 mg/kg/injection, schedule: Q01DX009 (ip), vehicle: water 102 % of control | endpoint: mean survival time, dose: 100.0 mg/kg/injection, schedule: Q01DX009 (ip), vehicle: water 95 % of control | endpoint: mean survival time, dose: 200.0 mg/kg/injection, schedule: Q01DX009 (ip), vehicle: water 114 % of control
